The values below are quoted from earlier work in US20260199285A1, “TAXANE FORMULATIONS” (BIOPURIFICATION, LLC, priority 2022, published 2026).

The structures appear in SMILES notation.

In data set [1] the test system is advanced breast carcinoma.

As to `CC(=O)O[C@@]12CO[C@@H]1C[C@H](O)[C@@]1(C)C(=O)[C@H](O)C3=C(C)[C@@H](OC(=O)[C@H](O)[C@@H](NC(=O)OC(C)(C)C)c4ccccc4)C[C@@](O)([C@@H](OC(=O)c4ccccc4)[C@H]21)C3(C)C` [docetaxel], the “inhibitory activity of tubulin depolymerization relative to paclitaxel” value in the data set with tubulin depolymerization is given as “about 2 times”. Moreover, in data set [1], the “effective ratio for treatment of advanced breast carcinoma” value is 49%.
